Assay results: patent publication US20090143454A1, “Pyrazoline Derivatives and Their Use As Pesticides” (BAYER CROPSCIENCE AG, priority 2001, published 2009)

Tested on: Lucilia cuprina larvae
Assay: Blowfly larvae test/development-inhibitory action
Format: in vivo
Settings: 20 ppm; after 48 h
Method: 20 mg of active compound are dissolved in 1 ml of dimethyl sulphoxide. More dilute concentrations are prepared by dilution with distilled water.
About 20 Lucilia cuprina larvae are introduced into a test tube which contains about 1 cm^3 of horsemeat and 0.5 ml of the preparation of active compound to be tested. The activity of the preparation of active compound is determined after 24 and 48 hours. The test tubes are transferred into a beaker whose bottom is covered with sand. After a further 2 days, the test tubes are removed and the pupae are counted.
The activity of the preparation of active compound is assessed using the number of flies that have hatched after 1.5 times the development period of an untreated control. 100% means that none of the flies have hatched; 0% means that all of the flies have hatched normally.

SMILES | activity/kill rate in % after 48 h
N#Cc1cnn(C2CN(C(=O)Nc3ccc(OC(F)(F)F)cc3)N=C2c2ccc(Cl)cc2)c1 (stereo not drawn) [drawing 78] | 100/100%
COC(=O)N(C(=O)N1CC(n2cc(C#N)cn2)C(c2ccc(Cl)cc2)=N1)c1ccc(OC(F)(F)F)cc1 (stereo not drawn) [drawing 79] | 100/100%
N#Cc1cnn(C2CN(C(=O)Nc3ccc(OC(F)(F)F)cc3)N=C2c2ccc(Br)cc2)c1 (stereo not drawn) [drawing 81] | 100/100%
N#Cc1cnn(C2CN(C(=O)Nc3ccc(S(=O)(=O)C(F)(F)F)cc3)N=C2c2ccc(Br)cc2)c1 (stereo not drawn) [drawing 82] | 100/100%
N#Cc1cnn(C2CN(C(=O)Nc3ccc(OC(F)(F)F)cc3)N=C2c2ccc(I)cc2)c1 (stereo not drawn) [drawing 83] | 100/100%
N#Cc1cnn(C2CN(C(=O)Nc3ccc(S(=O)(=O)C(F)(F)F)cc3)N=C2c2ccc(Cl)cc2)c1 (stereo not drawn) [drawing 84] | 100/100%
N#CCN(C(=O)N1CC(n2cc(C#N)cn2)C(c2ccc(Cl)cc2)=N1)c1ccc(OC(F)(F)F)cc1 (stereo not drawn) [drawing 85] | 100/100%

Same assay, conditions: 100 ppm; after 48 h

SMILES | activity/kill rate in % after 48 h
N#Cc1cnn(C2CN(C(=O)Nc3ccc(OC(F)(F)F)cc3)N=C2c2ccc(Cl)cc2)c1 (stereo not drawn) [drawing 78] | 100/100%
COC(=O)N(C(=O)N1CC(n2cc(C#N)cn2)C(c2ccc(Cl)cc2)=N1)c1ccc(OC(F)(F)F)cc1 (stereo not drawn) [drawing 79] | 100/100%
N#Cc1cnn(C2CN(C(=O)Nc3ccc(OC(F)(F)F)cc3)N=C2c2ccc(Br)cc2)c1 (stereo not drawn) [drawing 81] | 100/100%
N#Cc1cnn(C2CN(C(=O)Nc3ccc(S(=O)(=O)C(F)(F)F)cc3)N=C2c2ccc(Br)cc2)c1 (stereo not drawn) [drawing 82] | 100/100%
N#Cc1cnn(C2CN(C(=O)Nc3ccc(OC(F)(F)F)cc3)N=C2c2ccc(I)cc2)c1 (stereo not drawn) [drawing 83] | 100/100%
N#Cc1cnn(C2CN(C(=O)Nc3ccc(S(=O)(=O)C(F)(F)F)cc3)N=C2c2ccc(Cl)cc2)c1 (stereo not drawn) [drawing 84] | 100/100%
N#CCN(C(=O)N1CC(n2cc(C#N)cn2)C(c2ccc(Cl)cc2)=N1)c1ccc(OC(F)(F)F)cc1 (stereo not drawn) [drawing 85] | 100/100%

Same assay, conditions: Lucilia cuprina, 48 h, read-out: activity/kill rate in % after 48 h

SMILES | pest or weed control at 100 ppm [%]
CCOC(=O)N(C(=O)N1CC(n2cc(C#N)cn2)C(c2ccc(Cl)cc2)=N1)c1ccc(OC(F)(F)F)cc1 (stereo not drawn) [drawing 80] | 100

Tested on: not listed separately
Assay: logP determination by HPLC on reversed-phase column (EEC Directive 79/831 Annex V.A8)
Format: physicochemical
Settings: pH 2.3
Method: The logP values given in the Preparation Examples and Tables above are determined in accordance with EEC Directive 79/831 Annex V.A8 by HPLC (High Performance Liquid Chromatography) using a reversed-phase column (C 18). Temperature: 43° C.
The determination in the acidic range is carried out at pH 2.3 using the mobile phases 0.1% aqueous phosphoric acid and acetonitrile; linear gradient from 10% acetonitrile to 90% acetonitrile.
Calibration is carried out using unbranched alkan-2-ones (having 3 to 16 carbon atoms) with known logP values (determination of the logP values by the retention times using linear interpolation between two successive alkanones).

SMILES | logP (pH 2)/m.p. | logP (pH 2)
N#Cc1cnn(C2CN(C(=O)Nc3ccc(OC(F)(F)F)cc3)N=C2c2ccc(Cl)cc2)c1 (stereo not drawn) [Example 3] | 3.91 | 
N#Cc1cnn(C2CN(C(=O)Nc3ccc(C(F)(F)F)cc3)N=C2c2ccc(Cl)cc2)c1 (stereo not drawn) [Example 4] | 3.86 | 
N#Cc1cnn(C2CN(C(=O)Nc3ccc(SC(F)(F)F)cc3)N=C2c2ccc(Cl)cc2)c1 (stereo not drawn) [Example 5] | 4.27 | 
COC(=O)N(C(=O)N1CC(n2cc(C#N)cn2)C(c2ccc(Cl)cc2)=N1)c1ccc(OC(F)(F)F)cc1 (stereo not drawn) [Example 6] | 3.82 | 
CCOC(=O)N(C(=O)N1CC(n2cc(C#N)cn2)C(c2ccc(Cl)cc2)=N1)c1ccc(OC(F)(F)F)cc1 (stereo not drawn) [Example 7] | 4.06 | 
N#Cc1cnn(C2CN(C(=O)Nc3ccc(OC(F)(F)F)cc3)N=C2c2ccc(Br)cc2)c1 (stereo not drawn) [Example 9] | 4.00 | 
N#Cc1cnn(C2CN(C(=O)Nc3ccc(SC(F)(F)F)cc3)N=C2c2ccc(Br)cc2)c1 (stereo not drawn) [Example 10] | 4.35 | 
N#Cc1cnn(C2CN(C(=O)Nc3ccc(S(=O)(=O)C(F)(F)F)cc3)N=C2c2ccc(Br)cc2)c1 (stereo not drawn) [Example 11] | 3.88 | 
N#Cc1cnn(C2CN(C(=O)Nc3ccc([S+]([O-])C(F)(F)F)cc3)N=C2c2ccc(Cl)cc2)c1 (stereo not drawn) [Example 12] | 3.28 | 
N#Cc1cnn(C2CN(C(=O)Nc3ccc(OC(F)(F)F)cc3)N=C2c2ccc(I)cc2)c1 (stereo not drawn) [Example 13] | 4.12 | 
N#Cc1cnn(C2CN(C(=O)Nc3ccc(SC(F)(F)F)cc3)N=C2c2ccc(I)cc2)c1 (stereo not drawn) [Example 14] | 4.48 | 
N#Cc1cnn(C2CN(C(=O)Nc3ccc(OC(F)(F)F)cc3)N=C2c2ccc(SC(F)(F)F)cc2)c1 (stereo not drawn) [Example 15] | 4.39 | 
N#Cc1cnn(C2CN(C(=O)Nc3ccc(SC(F)(F)F)cc3)N=C2c2ccc(SC(F)(F)F)cc2)c1 (stereo not drawn) [Example 16] | 4.73 | 
COC(=O)c1cnn(C2CN(C(=O)Nc3ccc(OC(F)(F)F)cc3)N=C2c2ccc(Cl)cc2)c1 (stereo not drawn) [Example 17] | 3.95 | 
N#Cc1cnn(C2CN(C(=O)Nc3ccc(S(=O)(=O)C(F)(F)F)cc3)N=C2c2ccc(Cl)cc2)c1 (stereo not drawn) [Example 18] | 3.78 | 
CN(C)C(=O)c1cnn(C2CN(C(=O)Nc3ccc(OC(F)(F)F)cc3)N=C2c2ccc(Cl)cc2)c1 (stereo not drawn) [Example 19] | 3.27 | 
CNC(=O)c1cnn(C2CN(C(=O)Nc3ccc(OC(F)(F)F)cc3)N=C2c2ccc(Cl)cc2)c1 (stereo not drawn) [Example 20] | 3.07 | 
CNC(=O)c1cnn(C2CN(C(=O)Nc3ccc(SC(F)(F)F)cc3)N=C2c2ccc(Cl)cc2)c1 (stereo not drawn) [Example 21] | 3.39 | 
CNC(=O)c1cnn(C2CN(C(=O)Nc3ccc(S(=O)(=O)C(F)(F)F)cc3)N=C2c2ccc(Cl)cc2)c1 (stereo not drawn) [Example 22] | 3.00 | 
NC(=O)c1cnn(C2CN(C(=O)Nc3ccc(OC(F)(F)F)cc3)N=C2c2ccc(Cl)cc2)c1 (stereo not drawn) [Example 23] | 2.94 | 
NC(=O)c1cnn(C2CN(C(=O)Nc3ccc(SC(F)(F)F)cc3)N=C2c2ccc(Cl)cc2)c1 (stereo not drawn) [Example 24] | 3.24 | 
NC(=O)c1cnn(C2CN(C(=O)Nc3ccc(S(=O)(=O)C(F)(F)F)cc3)N=C2c2ccc(Cl)cc2)c1 (stereo not drawn) [Example 25] | 2.94 | 
CN(C)C(=O)c1cnn(C2CN(C(=O)Nc3ccc(SC(F)(F)F)cc3)N=C2c2ccc(Cl)cc2)c1 (stereo not drawn) [Example 26] | 3.27 | 
CN(C)C(=O)c1cnn(C2CN(C(=O)Nc3ccc(S(=O)(=O)C(F)(F)F)cc3)N=C2c2ccc(Cl)cc2)c1 (stereo not drawn) [Example 27] | 3.27 | 
N#Cc1cnn(C2CN(C(=O)Nc3ccc(Br)cc3)N=C2c2ccc(Cl)cc2)c1 (stereo not drawn) [Example 28] | 3.73 | 

SMILES | logP (pH 2)/m.p. | logP (pH 2)
N#Cc1ccc(NC(=O)N2CC(n3cc(C#N)cn3)C(c3ccc(Cl)cc3)=N2)cc1 (stereo not drawn) [Example 29] | 3.00 | 
N#Cc1cnn(C2CN(C(=O)Nc3ccc(I)cc3)N=C2c2ccc(Cl)cc2)c1 (stereo not drawn) [Example 30] | 3.90 | 
N#CCN(C(=O)N1CC(n2cc(C#N)cn2)C(c2ccc(Cl)cc2)=N1)c1ccc(Cl)cc1 (stereo not drawn) [Example 31] | 3.42 | 
N#CCN(C(=O)N1CC(n2cc(C#N)cn2)C(c2ccc(Cl)cc2)=N1)c1ccc(SC(F)(F)F)cc1 (stereo not drawn) [Example 32] | 3.90 | 
N#CCN(C(=O)N1CC(n2cc(C#N)cn2)C(c2ccc(Br)cc2)=N1)c1ccc(OC(F)(F)F)cc1 (stereo not drawn) [Example 33] | 3.75 | 
N#CCN(C(=O)N1CC(n2cc(C#N)cn2)C(c2ccc(Br)cc2)=N1)c1ccc(SC(F)(F)F)cc1 (stereo not drawn) [Example 34] | 3.99 | 
N#CCN(C(=O)N1CC(n2cc(C#N)cn2)C(c2ccc(Br)cc2)=N1)c1ccc(C(F)(F)F)cc1 (stereo not drawn) [Example 35] | 3.63 | 
N#CCN(C(=O)N1CC(n2cc(C#N)cn2)C(c2ccc(Cl)cc2)=N1)c1ccc(C(F)(F)F)cc1 (stereo not drawn) [Example 36] | 3.56 | 
N#Cc1cnn(C2CN(C(=O)Nc3ccc(C(F)(F)F)cc3)N=C2c2ccc(Br)cc2)c1 (stereo not drawn) [Example 37] | 3.94 | 
N#Cc1cnn(C2CNN=C2c2ccc(Br)cc2)c1 (stereo not drawn) [II-2] |  | 2.20
N#Cc1cnn(C2CNN=C2c2ccc(I)cc2)c1 (stereo not drawn) [II-3] |  | 2.33
N#Cc1cnn(C2CNN=C2c2ccc(SC(F)(F)F)cc2)c1 (stereo not drawn) [II-4] |  | 2.78
COC(=O)c1cnn(C2CNN=C2c2ccc(Cl)cc2)c1 (stereo not drawn) [II-5] |  | 2.13
CN(C)C(=O)c1cnn(C2CNN=C2c2ccc(Cl)cc2)c1 (stereo not drawn) [II-6] |  | 1.54
CNC(=O)c1cnn(C2CNN=C2c2ccc(Cl)cc2)c1 (stereo not drawn) [II-7] |  | 1.38
NC(=O)c1cnn(C2CNN=C2c2ccc(Cl)cc2)c1 (stereo not drawn) [II-8] |  | 1.28
N#Cc1cnn(CC(=O)c2ccc(Br)cc2)c1 [VI-3] |  | 2.31
N#Cc1cnn(CC(=O)c2ccc(I)cc2)c1 [VI-4] |  | 2.47
N#Cc1cnn(CC(=O)c2ccc(SC(F)(F)F)cc2)c1 [VI-5] |  | 2.91
COC(=O)c1cnn(CC(=O)c2ccc(Cl)cc2)c1 [VI-6] |  | 2.20
CNC(=O)c1cnn(CC(=O)c2ccc(Cl)cc2)c1 [VI-7] |  | 1.44
NC(=O)c1cnn(CC(=O)c2ccc(Cl)cc2)c1 [VI-8] |  | 1.33
N#CCNc1ccc(SC(F)(F)F)cc1 [XII-2] |  | 2.82
N#CCNc1ccc(C(F)(F)F)cc1 [XII-3] |  | 2.36

Same assay, conditions: reversed-phase C18 HPLC column; values in the text of the Preparation Examples; HPLC, acidic range pH 2.3, 43° C.; read-out: logP (pH 2)

SMILES | chromatographic logP
O=C(O)c1cnn(CC(=O)c2ccc(Cl)cc2)c1 [1-(4-chlorophenacyl)-pyrazole-4-carboxylic acid] | 1.67
N#Cc1cnn(C2CN(C(=O)Nc3ccc(Cl)cc3)N=C2c2ccc(Cl)cc2)c1 (stereo not drawn) [Example 1, 4′-chloro-3-(4-chlorophenyl)-4-(4-cyanopyrazol-1-yl)-4,5-dihydro-1-pyrazolecarboxanilide] | 3.64
N#CCN(C(=O)N1CC(n2cc(C#N)cn2)C(c2ccc(Cl)cc2)=N1)c1ccc(OC(F)(F)F)cc1 (stereo not drawn) [Example 2, 3-(4-chlorophenyl)-4-(4-cyanopyrazol-1-yl)-4,5-dihydro-1-pyrazole-(N-cyanomethyl)-4′-trifluoromethoxycarboxanilide] | 3.68
CN(C)C(=O)c1cnn(CC(=O)c2ccc(Cl)cc2)c1 [VI-2, N,N-dimethyl-1-(4-chlorophenacyl)-pyrazole-4-carboxamide] | 1.62
N#CCNc1ccc(OC(F)(F)F)cc1 [XII-1, N-cyanomethyl-4-trifluoromethoxyaniline] | 2.49
